Results: ChEMBL document CHEMBL1145553, “Possible chemical mechanisms underlying the antitumor activity of S-deoxyleinamycin” (Bioorg Med Chem Lett, 2008)

Key:
[1] = Cleavage of supercoiled pGL2 basic DNA assessed as number of strand breaks per plasmid at 150 uM in presence of thiol
[2] = Cleavage of supercoiled pGL2 basic DNA assessed as nicked open circular form DNA level at 150 uM in presence of thiol
[3] = Cleavage of supercoiled pGL2 basic DNA assessed as number of strand breaks per plasmid at 150 uM
[4] = Cleavage of thiol-mediated supercoiled pGL2 basic DNA assessed as nicked open circular form DNA level at 150 uM in presence 1 M methanol
[5] = Cleavage of supercoiled pGL2 basic DNA assessed as nicked open circular form DNA level at 150 uM
[6] = Cleavage of thiol-mediated supercoiled pGL2 basic DNA assessed as nicked open circular form DNA level at 150 uM in presence 1 M ethanol
[7] = Cleavage of thiol-mediated supercoiled pGL2 basic DNA assessed as nicked open circular form DNA level at 150 uM in presence 10 mM desferal
[8] = Cleavage of thiol-mediated supercoiled pGL2 basic DNA assessed as nicked open circular form DNA level at 150 uM in presence […]
[9] = Cleavage of thiol-mediated supercoiled pGL2 basic DNA assessed as nicked open circular form DNA level at 150 uM in presence 100 ug/ml catalase
[10] = Cleavage of thiol-mediated supercoiled pGL2 basic DNA assessed as nicked open circular form DNA level at 150 uM in presence 100 ug/ml superoxide dismutase
[11] = Cleavage of thiol-mediated supercoiled pGL2 basic DNA assessed as nicked open circular form DNA level at 150 uM in presence 50 ug/ml superoxide dismutase
[12] = Cleavage of thiol-mediated supercoiled pGL2 basic DNA assessed as number of strand breaks per plasmid at 150 uM in presence of 1 M methanol
[13] = Cleavage of thiol-mediated supercoiled pGL2 basic DNA assessed as number of strand breaks per plasmid at 150 uM in presence of 1 M ethanol
[14] = Cleavage of thiol-mediated supercoiled pGL2 basic DNA assessed as number of strand breaks per plasmid at 150 uM in presence of 10 mM desferal
[15] = Cleavage of thiol-mediated supercoiled pGL2 basic DNA assessed as number of strand breaks per plasmid at 150 uM in presence of 10 mM diethylenetriaminepentaacetic acid
[16] = Cleavage of thiol-mediated supercoiled pGL2 basic DNA assessed as number of strand breaks per plasmid at 150 uM in presence of 1 M DMSO
[17] = Cleavage of thiol-mediated supercoiled pGL2 basic DNA assessed as number of strand breaks per plasmid at 150 uM in presence of 100 ug/ml catalase
[18] = Cleavage of thiol-mediated supercoiled pGL2 basic DNA assessed as nicked open circular form DNA level at 150 uM in presence 10 mM diethylenetriaminepentaacetic acid
HeLa = assay: Cytotoxicity against human HeLa S3 cells; assay type: functional, cell-based
HepG2 = assay: Growth inhibition of human HepG2 cells; assay type: functional

Compound: O=c1ssc2ccccc12
- Activity [1]: 0.4
- Activity [2]: 33.1%

Compound: CC1(C)SSC(=O)C1(C)O (stereo unspecified)
- Activity [3]: 0.2
- Activity [1]: 1.32
- Activity [4]: 27.5%
- Activity [5]: 18.2%
- Activity [2]: 73.1%
- Activity [6]: 19%
- Activity [7]: 25.9%
- Activity [8]: 15.5%
- Activity [9]: 19.3%
- Activity [10]: 100%
- Activity [11]: 100%
- Activity [12]: 0.32
- Activity [13]: 0.21
- Activity [14]: 0.3
- Activity [15]: 0.21
- Activity [16]: 0.17
- Activity [17]: 0.21
- Activity [18]: 19%

Compound: C/C1=C\[C@@H](O)C(=O)/C=C/C=C\c2csc(n2)[C@@H](C)NC(=O)C[C@@]2(CC1)[S+]([O-])SC(=O)[C@]2(C)O (stereo partly specified) [LEINAMYCIN]
- IC50 (HeLa): 27 nM

Compound: N[C@@H](Cc1ccc(N(CCCl)CCCl)cc1)C(=O)O [MELPHALAN]
- GI50 (HepG2): 17000 nM

Compound: CC1(O)C(=O)S[S+]([O-])C1(C)C (stereo unspecified)
- Activity [1]: 2.58
- Activity [2]: 92.5%

Compound: C/C1=C\[C@@H](O)C(=O)/C=C/C=C\c2csc(n2)[C@@H](C)NC(=O)C[C@@]2(CC1)SSC(=O)[C@]2(C)O
- IC50 (HeLa): 4000 nM

Compound: BLEOMYCIN
- GI50 (HepG2): 1000 nM
